Measurements reported in ChEMBL document CHEMBL1140364, “Anxiolytic effects of benzalphthalides” (2005).

Assays:
Format in all cases: functional
[1] = system: Mus musculus; test: Number of entries into the open arms of the maze for anxiolytic activity in ICR mouse through elevated plus maze test after intraperitoneal injection of 15 mg/kg
[2] = system: Mus musculus; test: Percentage number of entries into the open arms of the maze for anxiolytic activity in ICR mouse through elevated plus test after intraperitoneal injection of 15 mg/kg
[3] = system: Mus musculus; test: Time spent into the open arms of the maze for anxiolytic activity in ICR mouse through elevated plus maze test after intraperitoneal injection of 15 mg/kg
[4] = system: Mus musculus; test: Number of entries into the closed arms of the maze for anxiolytic activity in ICR mouse through elevated plus test after intraperitoneal injection of 15 mg/kg
[5] = system: Mus musculus; test: Total number of entries into the open and closed arms of the maze for anxiolytic activity in ICR mouse through elevated plus test after intraperitoneal injection of 15 mg/kg

Compound	No. of entries [1]	No. of entries [2] [%]	Spent time [3] [h]	No. of entries [4]	Total number of entries [5]
C[S+]([O-])c1ccc(/C=C2\OC(=O)c3ccccc32)cc1 (stereo not given)	10.8	55.6	0.0427	9	19.8
O=C1O/C(=C\c2ccc([N+](=O)[O-])cc2)c2ccccc21	9	57.2	0.0441	7.3	16.3
CSc1ccc(/C=C2\OC(=O)c3ccccc32)cc1	7.9	49.5	0.0363	9.9	17.7
COc1ccc(/C=C2\OC(=O)c3ccc(C(N)=O)cc32)cc1	13	50.2	0.0348	11.5	24
COc1cc(/C=C2\OC(=O)c3ccccc32)cc(OC)c1OC	8.3	44.8	0.0296	9	17.3
O=C1O/C(=C\c2ccc(Cl)cc2)c2ccccc21	8	55.8	0.0444	8.5	16.5
O=C1O/C(=C\c2ccc3c(c2)OCO3)c2ccccc21	11.2	54.4	0.0418	9	20.2
CS(=O)(=O)c1ccc(/C=C2\OC(=O)c3ccccc32)cc1	10.6	69.9	0.052	5.6	16.4
COc1ccc(/C=C2\OC(=O)c3cc([N+](=O)[O-])c([N+](=O)[O-])cc32)cc1	11.7	51.7	0.0359	10.5	22.2
CCCCCCCCCCCC(=O)OCCOCC(OCCO)C1OCC(OCCO)C1OCCO (stereo not given)	9.6	51.2	0.034	8.9	18.5
COc1ccc(/C=C2\OC(=O)c3ccccc32)cc1	13	64.1	0.0493	7.1	20.1
CN1C(=O)CN=C(c2ccccc2)c2cc(Cl)ccc21 [DIAZEPAM]	15.8	82	0.064	3.7	19.5
C=C(C)[C@@H]1[C@H]2OC(=O)[C@@H]1[C@]1(O)C[C@H]3OC34C(=O)O[C@H]2[C@@]41C.CC(C)(O)[C@@H]1[C@H]2OC(=O)[C@@H]1[C@]1(O)C[C@H]3OC34C(=O)O[C@H]2[C@@]41C (stereo not given in full) [PICROTOXIN]	2.5	19	0.00739	9.4	11.8
